Measured values taken from ChEMBL document CHEMBL1124323, “Phenolic metabolites of clomiphene: [(E,Z)-2-[4-(1,2-diphenyl-2-chlorovinyl)phenoxy]ethyl]diethylamine. Preparation, electrophilicity, and effects in MCF 7 breast cancer cells” (J Med Chem, 1989).

Key:
MCF7S [1] = assay: cells; settings: Homo sapiens
[2] = target: T1, Anti-estrogen binding site (AEBS) (Homo sapiens, UniProt Q15125+Q9UBM7); assay: Displacement of [3H]tamoxifen from antiestrogen binding site (AEBS); assay type: protein-complex assay
T1 sequence (Q15125 whole entry): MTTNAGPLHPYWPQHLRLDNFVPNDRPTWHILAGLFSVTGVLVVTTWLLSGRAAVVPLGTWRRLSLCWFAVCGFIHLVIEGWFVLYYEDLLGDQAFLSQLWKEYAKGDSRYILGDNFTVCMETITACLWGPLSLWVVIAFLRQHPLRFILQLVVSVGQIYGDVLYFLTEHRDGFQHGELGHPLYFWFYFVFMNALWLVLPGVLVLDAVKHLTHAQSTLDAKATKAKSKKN
T1 sequence (Q9UBM7 whole entry): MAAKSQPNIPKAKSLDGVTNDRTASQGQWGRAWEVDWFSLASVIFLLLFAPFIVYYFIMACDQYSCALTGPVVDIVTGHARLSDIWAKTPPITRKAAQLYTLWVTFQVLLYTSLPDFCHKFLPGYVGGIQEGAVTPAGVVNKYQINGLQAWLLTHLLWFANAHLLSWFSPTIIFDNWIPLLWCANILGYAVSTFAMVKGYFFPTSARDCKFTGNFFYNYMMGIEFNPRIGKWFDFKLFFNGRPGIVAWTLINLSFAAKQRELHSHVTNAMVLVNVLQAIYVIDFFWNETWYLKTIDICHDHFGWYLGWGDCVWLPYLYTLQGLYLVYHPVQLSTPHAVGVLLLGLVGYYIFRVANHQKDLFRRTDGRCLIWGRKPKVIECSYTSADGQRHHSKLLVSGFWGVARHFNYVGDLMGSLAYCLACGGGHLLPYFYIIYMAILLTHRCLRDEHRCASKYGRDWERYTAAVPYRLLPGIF

Estrogen receptor [3] = target: T2, Estrogen receptor (Homo sapiens, UniProt Q92731+P03372); assay: Displacement of [3H]-estradiol from estrogen receptor (ER); assay type: protein assay
[4] = target: T1, Anti-estrogen binding site (AEBS); assay: Relative binding affinity for antiestrogen binding site compared to tamoxifen; assay type: protein-complex assay
MCF7S [5] = assay: Inhibition of MCF-7 cell proliferation at 5 uM; assay type: functional; settings: Homo sapiens
Estrogen receptor [6] = target: T2, Estrogen receptor; assay: Relative binding affinity for estrogen receptor compared to estradiol; assay type: protein assay

SMILES | inhibition at 5 µM (MCF7S [1]) | IC50 [2] | IC50 (Estrogen receptor [3]) | Ratio [4] | inhibition at 5 µM (MCF7S [5]) | Ratio (Estrogen receptor [6])
CCN(CC)CCOc1ccc(/C(=C(/Cl)c2ccc(O)cc2)c2ccccc2)cc1 | 57% | – | – | – | – | –
CCN(CC)CCOc1ccc(C(=C(Cl)c2ccccc2)c2ccccc2)cc1 [CLOMIPHENE] | 80% | – | – | – | – | –
CCN(CC)CCOc1ccc(/C(=C(/Cl)c2ccc(O)c(OC)c2)c2ccccc2)cc1 | – | 32 nM | 3000 nM | 38 | 49% | –
CCN(CC)CCOc1ccc(/C(=C(/Cl)c2ccccc2)c2ccc(O)c(OC)c2)cc1 [3'-METHOXY-4'HYDROXYCLOMIPHENE] | 76% | 22 nM | 780 nM | 55 | – | 0.4
